Tests used:
HeLa S3 = assay: ATP assay (cytotoxicity assay), DOX-ABC and DOX; details: HeLa S3, 0.05-50 μM, 48 hours at 37° C., FIG. 16
Method: (§4) Three cell lines (MCF10A, A549, and HeLa S3) were seeded on a 96-well plate (2×10^4 cells/well) and left to attach for 24 hours at 37° C. Each of the cells was then used for two different conditions as follows:
(§5) (Condition 1) The cells were treated with 100 μL of DOX-ABC (compound 7) solutions [0.05 μM, 0.1 μM, 0.5 μM, 1 μM, 5 μM, 10 μM, 50 μM in the culture medium (1% DMSO)] and incubated for 48 hours at 37° C. under 5% of CO2.
(§6) (Condition 2) Incubation was carried out in a manner similar to that of condition 1 with use of doxorubicin (DOX) solutions.
(§7) After the incubation, 100 μL of ATP lite 1 step reagent was added to the cells, and the fluorescence intensity was measured using a spectrofluorometer (SpectraMax iD3, manufactured by Molecular Devices).

MCF10A = assay: ATP assay (cytotoxicity assay), DOX-ABC and DOX; details: 0.05-50 μM, 48 hours at 37° C., FIG. 16
Method: as §4, §5, §6, §7

A549 xenograft tumors [1] = assay: A549 tumor bearing mice xenograft model, intratumoral administration (Example 8); details: for tumor growth (tumor size): intratumoral 10 μL, 4 times on days 0, 4, 7 and 11, FIGS. 17 and 18; for survival rate: intratumoral, at and after the fourth administration, Kaplan Meier, FIG. 19
Method: The prepared mice were randomized, divided into three groups, and treated with the prodrugs and controls. Group 1 was intratumorally injected with 10 μL of compound 9 produced in Production Example 5 as a control (n=10). Group 2 was intratumorally injected with 10 μL of doxorubicin (n=10).
Administrations were conducted 4 times in total on days 0, 4, 7, and 11 with the same doses. The tumor volumes of the mice were recorded every day based on an equation: V=W^2×L/2, where W and L represented the minor length and major length of the tumor, respectively. When the tumor reached 2,000 mm^3, the mice were sacrificed, and the survival rates were calculated using the Kaplan Meier method.

A549 = assay: ATP assay (cytotoxicity assay), DOX-ABC and DOX; details: A549, 0.05-50 μM, 48 hours at 37° C., FIG. 16
Method: as §4, §5, §6, §7

A549 xenograft tumors [2] = assay: A549 tumor bearing mice xenograft model, intratumoral administration (Example 9); assay type: in vivo; details: intratumoral 10 μL, 4 times on days 0, 4, 7 and 11; FIG. 20
[3] = Fluorescence release, HPLC analysis of mixture with acrolein; assay type: physicochemical; details: 20 μM in DMSO, acrolein 1.0 eq, FIG. 9
Method: (§1) To a solution of coumarin-ABC (compound 7) (2×10^−5 mmol, 1.0 eq) in DMSO (1 mL, [compound 7]=20 μM) was added glutathione (GSH) (2×10^−5 mmol, 1.0 eq) or acrolein (2×10^−5 mmol, 1.0 eq). The reaction liquid was stirred and the reaction mixture was subjected to HPLC analysis at different time intervals (30 minutes, 1 hour, 2 hours, 4 hours, and 12 hours). Conditions of reversed-phase HPLC were as follows: Column, Cosmosil 5C18-AR300 (manufactured by Nacalai Tesque, Inc.) 4.6×250 mm; Mobile phase A, 0.1% TFA in H2O; Mobile phase B, 0.1% TFA in CH3CN; Gradient elution, 0-4 min at 65% B, 4-14 min at 65-95% B, 14-20 min at 95% B; Flow rate at 1 mL/min; Fluorescence detection at 360/450 nm; Amount per injection 6 μL. Results are shown in FIG. 8 (GSH) and FIG. 9 (acrolein).

[4] = system: HeLa S3 (human cervical cancer cells); assay: Fluorescence release, cell-based assay, time-dependent; details: HeLa S3, 2 μM or 20 μM, real-time 30 minutes, FIGS. 6 and 7
Method: (§2) Fluorescence intensity was normalized for each cell line by the number of 10,000 cells. Results are shown in FIG. 6 (2 μM) and FIG. 7 (20 μM).

[5] = system: A549 (human lung adenocarcinoma cells); assay: as above; details: A549, 2 μM or 20 μM, real-time 30 minutes, FIGS. 6 and 7
Method: as §2

[6] = system: MCF10A (normal human mammary cells); assay: as above; details: 2 μM or 20 μM, real-time 30 minutes, FIGS. 6 and 7
Method: as §2

[7] = Fluorescence release, HPLC analysis of mixture with glutathione; assay type: physicochemical; details: 20 μM in DMSO, GSH 1.0 eq, FIG. 8
Method: as §1

[8] = system: HeLa S3 (human cervical cancer cells); assay: Fluorescence release, cell-based assay, concentration-dependent; details: FIG. 5
Excerpt: (§3) Fluorescence intensity was normalized for each cell line by the number of 10,000 cells.

[9] = system: A549 (human lung adenocarcinoma cells); assay: as above; details: FIG. 4
Excerpt: as §3

[10] = system: MCF10A (normal human mammary cells); assay: as above; details: 2-20 μM, FIG. 3
Excerpt: as §3

[11] = Fluorescence spectra in water (0.2% DMSO); assay type: physicochemical; details: 2 μM in water (0.2% DMSO), FIG. 1
Excerpt: The results are shown in FIG. 1 (dashed line: compound 7, solid line: control compound).

A549 xenograft tumors [12] = assay: A549 tumor bearing mice xenograft model, intratumoral administration (Example 6); details: 12 times in consecutive days, mitomycin C 1.8 mg/kg, MMC-ABC 3.1 mg/kg, FIGS. 13 and 15
Method: For all intratumoral injections and tumor measurements, mice were anesthetized with 2% isoflurane in oxygen at a 2.5-3.0 L/min flow rate.
A549 cells were obtained from stock lines kept in liquid nitrogen. These cells were cultured in Dulbeccos's modified eagle's medium (DMEM) (manufactured by FUJIFILM Wako Pure Chemical Corporation) supplemented with 10% fetal bovine serum (FBS) (manufactured by BioWest) and 1% penicillin-streptomycin (manufactured by Gibco). The cells were then incubated at 37° C. in a 5% CO2 humidified atmosphere.
A549 xenograft tumors were established in 6-week-old female nude mice BALB/cAJc1-nu/nu by subcutaneous injection of a suspension of 2.5-6.0×10^6 cells in 100 μL of cold 50% matrigel in unnourished DMEM into the right and left shoulders, and tumor growth was monitored. The mice were kept in controlled temperature, salinity, and aeration room with sufficient food and water for 12 hours day and 12 hours night. […]
The administrations were repeated 12 times in consecutive days with the same doses. The tumor volume and body weight of the mice were recorded every day based on an equation: V=W^2×L/2, where W and L represented the minor length and major length of the tumor, respectively. When the tumor reached 2,000 mm^3, the mice were sacrificed, and the survival rates were calculated using the Kaplan Meier method. […]

In the case of COc1cccc2c1C(=O)c1c(O)c3c(c(O)c1C2=O)C[C@@](O)(C(=O)CO)C[C@@H]3O[C@H]1C[C@H](NC(=O)OCc2cc(C(C)C)c(N=[N+]=[N-])c(C(C)C)c2)[C@H](O)[C@H](C)O1 [DOX-ABC], the “cytotoxicity (cell viability)” value (HeLa S3) is reported as “released free DOX specifically in cancer cells”, the “cytotoxicity (cell viability)” value (MCF10A) is reported as “released free DOX specifically in cancer cells” and the “tumor growth (tumor size)” value (A549 xenograft tumors [1]) is reported as “effective with respect to the tumor growth”. The survival rate (A549 xenograft tumors [1]) was 100% and the “cytotoxicity (cell viability)” value (A549) was “released free DOX specifically in cancer cells”.
With COc1ccc(CC(NC(=O)OCc2cc(C(C)C)c(N=[N+]=[N-])c(C(C)C)c2)C(=O)NC2C(O)[C@H](n3cnc4c(N(C)C)ncnc43)O[C@@H]2CO)cc1 (some centres unmarked) [PUR-ABC] the tumor growth (A549 xenograft tumors [2]) was “effective with respect to the tumor growth”.
For Cc1cc(C(C)C)c(N=[N+]=[N-])c(C(C)C)c1 [compound 9, 2-azido-1,3-diisopropyl-5-methylbenzene], the “tumor growth (tumor size)” value (A549 xenograft tumors [1]) was “larger tumor size”.
With Cc1cc(=O)oc2cc(NC(=O)OCc3cc(C(C)C)c(N=[N+]=[N-])c(C(C)C)c3)ccc12 [coumarin-ABC] the reaction with acrolein [3] was “rapidly reacted with each other”, the release of fluorescence [4] was “notably observed depending on the time” and the release of fluorescence [5] was “notably observed depending on the time”. For the same molecule, the release of fluorescence [6] was “only slightly observed”, the “reaction with glutathione (GSH)” value [7] was “did not react with each other” and the “state of the compound in the mixture with GSH” value ([7]; left for 12 hours) was “did not change”. The release of fluorescence ([8]; HeLa S3, 2-20 μM, 60 minutes at room temperature, no NAc-Cys (conditions 1 and 3)) was “notably observed”, the release of fluorescence ([8]; HeLa S3, pre-treated with 1 mM N-acetyl cysteine 2 hours (condition 2), 2-20 μM, 60 minutes) was “low” and the release of fluorescence ([9]; A549, 2-20 μM, 60 minutes at room temperature, no NAc-Cys (conditions 1 and 3)) was “notably observed”. The release of fluorescence ([9]; A549, pre-treated with 1 mM N-acetyl cysteine 2 hours (condition 2), 2-20 μM, 60 minutes) was “low”, the release of fluorescence ([10]; 60 minutes at room temperature, no NAc-Cys (conditions 1 and 3)) was “hardly observed” and the release of fluorescence ([10]; pre-treated with 1 mM N-acetyl cysteine 2 hours (condition 2), 60 minutes) was “hardly observed”. For the same molecule, the fluorescence emission [11] was “did not emit fluorescence”.
For COc1cccc2c1C(=O)c1c(O)c3c(c(O)c1C2=O)C[C@@](O)(C(=O)CO)C[C@@H]3O[C@H]1C[C@H](N)[C@H](O)[C@H](C)O1 [doxorubicin, reference compound], the “cytotoxicity (cell viability)” value (HeLa S3) was “nonspecifically exhibited cytotoxicity toward normal cells and cancer cells”, the “cytotoxicity (cell viability)” value (MCF10A) was “nonspecifically exhibited cytotoxicity toward normal cells and cancer cells” and the “tumor growth (tumor size)” value (A549 xenograft tumors [1]) was “effective with respect to the tumor growth”. For the same molecule, the survival rate (A549 xenograft tumors [1]) was “suddenly decreased” and the “cytotoxicity (cell viability)” value (A549) was “nonspecifically exhibited cytotoxicity toward normal cells and cancer cells”.
For CO[C@@]12[C@H](COC(N)=O)C3=C(C(=O)C(C)=C(N)C3=O)N1C[C@@H]1N[C@@H]12 [mitomycin C], the side effect (A549 xenograft tumors [12]) was “inflammation on the whole body”.

Source: patent US20240002398A1, “COMPLEX, AND USE THEREOF” (RIKEN, priority 2020, published 2024)
